Measurements: patent publication US7232570B2, “ERAAP modulators regulate immune responses” (Regents of the University of California, priority 2002, dated 2007)

Test system: Sprague-Dawley rats
Assay: Phenotypic and functional indicia of immunosuppression in treated rats
Format: in vivo
Details: e.g. influenza and lymphocytic coriomeningitis virus

With CC(C)C[C@H](N)CS [leucinethiol] the “resistance to viral challenge” value was “reduced”.
